Experiments:
[1] = system: rats; conditions: comparison salts; cited from earlier work
[2] = system: rats; experiment: Porsolt helplessness test; format: in vivo, rat
[3] = in normal settings; cited from earlier work
[4] = 7 days after the dosing, LiAsc, LiCa 5 mg/kg, phenazepam 0.25 mg
[5] = 28 days after the dosing, LiAsc, LiCa 5 mg/kg, phenazepam 0.25 mg
[6] = 7 days after the drug withdrawal, 5 mg/kg
[7] = 28 days after the drug withdrawal, 5 mg/kg

**Q.** With `[Li+].[O]=[Ta](=[O])[O-]` [Lithium metatantalate] as the compound, how does the “LD50, mg/kg in rats” value [1] read?
**A.** Its value is 750 mg/kg.

**Q.** Which “LD50, mg/kg in rats” value [1] does the source give for `[Cl-].[Li+]` [Lithium chloride] here?
**A.** The value was 970 mg/kg.

**Q.** With Lithium nitrate trihydrate as the compound, how does the “LD50, mg/kg in rats” value [1] read?
**A.** Its value is 1400 mg/kg.

**Q.** For `NCCCC(=O)O` [GABA lithium], which “LD50, mg/kg in rats” value [1] is on record?
**A.** Its value is 1800 mg/kg.

**Q.** Which “LD50, mg/kg in rats” value [1] does the source give for `O=C([O-])CCC(=O)[O-].[Li+].[Li+]` [Lithium succynate] here?
**A.** The value was 2416 mg/kg.

**Q.** With `[F-].[Li+]` [Lithium fluoride] as the compound, how does the “LD50, mg/kg in rats” value [1] read?
**A.** Its value is 175 mg/kg.

**Q.** For `O=C1CN=C(c2ccccc2Cl)c2cc(Br)ccc2N1` [phenazepam], which Adrenalin [2, 4] is on record?
**A.** The Adrenalin was 6.8 ± 0.65 µg/L.

**Q.** And the “Duration of activity” value [2, 4]?
**A.** Its value is 426.7 ± 76.4 s.

**Q.** And the “Duration of immobility” value [2, 4]?
**A.** The value was 173.3 ± 22.1 s.

**Q.** What about the “Eosinophils (Dunger method) in mm^3” value [2, 4] of the same compound?
**A.** The value was 969.1 ± 42.3 in mm^3.

**Q.** What about the Noradrenalin [2, 4] of the same compound?
**A.** The Noradrenalin was 17.6 ± 1.95 µg/L.

**Q.** And the “Number of gastric ulcers” value [2, 4]?
**A.** The value was 0.4 ± 0.1.

**Q.** And the Adrenalin [2, 5]?
**A.** The Adrenalin was 6.2 ± 0.57 µg/L.

**Q.** What about the “Duration of activity” value [2, 5] of the same compound?
**A.** Its value is 494.8 ± 60.4 s.

**Q.** And the “Duration of immobility” value [2, 5]?
**A.** Its value is 105.2 ± 20.1 s.

**Q.** And the “Eosinophils (Dunger method) in mm^3” value [2, 5]?
**A.** Its value is 988.1 ± 42.3 in mm^3.

**Q.** And the Noradrenalin [2, 5]?
**A.** The Noradrenalin was 16.2 ± 1.1 µg/L.

**Q.** And the “Number of gastric ulcers” value [2, 5]?
**A.** Its value is 0.1 ± 0.2.

**Q.** With `O=C([O-])CCCO.[Li+]` [Lithium oxibutirate] as the compound, how does the “LD50, mg/kg in rats” value [1] read?
**A.** Its value is 2200 mg/kg.

**Q.** For `O=C([O-])c1cccnc1.[Li+]` [Lithium nicotinate], which “LD50, mg/kg in rats” value [1] is on record?
**A.** The value was 2200 mg/kg.

**Q.** Which plasma concentration [3] does the source give for `O=C1O[C@H]([C@@H](O)CO)C(O)=C1O` [ascorbic acid] here?
**A.** The plasma concentration was 10000 to 20000 ng/mL.

**Q.** Which “LD50, mg/kg in rats” value [1] does the source give for `O=C([O-])c1ccccc1.[Li+]` [Lithium benzoate] here?
**A.** The value was 1200 mg/kg.

**Q.** Which “LD50, mg/kg in rats” value [1] does the source give for `[Br-].[Li+]` [Lithium bromide] here?
**A.** The value was 2200 mg/kg.

**Q.** Which “LD50, mg/kg in rats” value [1] does the source give for `CC(O)C(=O)[O-].[Li+]` (stereo not drawn) [Lithium lactate] here?
**A.** The value was 2100 mg/kg.

**Q.** For `O=C([O-])[O-].[Li+].[Li+]` [Lithium carbonate], which Adrenalin [2, 4] is on record?
**A.** The Adrenalin was 24.9 ± 9.5 µg/L.

**Q.** What about the “Duration of activity” value [2, 4] of the same compound?
**A.** The value was 100.9 ± 64.9 s.

**Q.** What about the “Duration of immobility” value [2, 4] of the same compound?
**A.** Its value is 499.1 ± 53.0 s.

**Q.** And the “Eosinophils (Dunger method) in mm^3” value [2, 4]?
**A.** The value was 312.6 ± 68.1 in mm^3.

**Q.** What about the Noradrenalin [2, 4] of the same compound?
**A.** Its Noradrenalin is 69.3 ± 35.2 µg/L.

**Q.** What about the “Number of gastric ulcers” value [2, 4] of the same compound?
**A.** Its value is 5.9 ± 2.1.

**Q.** What about the Adrenalin [2, 6] of the same compound?
**A.** Its Adrenalin is 29.6 ± 13.6 µg/L.

**Q.** What about the “Duration of activity” value [2, 6] of the same compound?
**A.** Its value is 91.8 ± 43.9 s.

**Q.** And the “Duration of immobility” value [2, 6]?
**A.** The value was 507.9 ± 101.4 s.

**Q.** And the “Eosinophils (Dunger method) in mm^3” value [2, 6]?
**A.** The value was 299.3 ± 93.5 in mm^3.

**Q.** And the Noradrenalin [2, 6]?
**A.** Its Noradrenalin is 80.6 ± 29.7 µg/L.

**Q.** What about the “Number of gastric ulcers” value [2, 6] of the same compound?
**A.** The value was 9.9 ± 3.7.

**Q.** And the Adrenalin [2, 5]?
**A.** The Adrenalin was 36.7 ± 9.6 µg/L.

**Q.** What about the “Duration of activity” value [2, 5] of the same compound?
**A.** Its value is 90.8 ± 67.3 s.

**Q.** What about the “Duration of immobility” value [2, 5] of the same compound?
**A.** The value was 508.9 ± 107.2 s.

**Q.** And the “Eosinophils (Dunger method) in mm^3” value [2, 5]?
**A.** Its value is 301.8 ± 102.3 in mm^3.

**Q.** And the Noradrenalin [2, 5]?
**A.** The Noradrenalin was 76.83 ± 30.2 µg/L.

**Q.** What about the “Number of gastric ulcers” value [2, 5] of the same compound?
**A.** Its value is 7.3 ± 2.6.

**Q.** What about the Adrenalin [2, 7] of the same compound?
**A.** Its Adrenalin is 37.1 ± 14.7 µg/L.

**Q.** What about the “Duration of activity” value [2, 7] of the same compound?
**A.** Its value is 93.8 ± 32.7 s.

**Q.** And the “Duration of immobility” value [2, 7]?
**A.** The value was 504.4 ± 173.4 s.

**Q.** What about the “Eosinophils (Dunger method) in mm^3” value [2, 7] of the same compound?
**A.** Its value is 281.2 ± 83.1 in mm^3.

**Q.** And the Noradrenalin [2, 7]?
**A.** The Noradrenalin was 76.34 ± 18.6 µg/L.

**Q.** What about the “Number of gastric ulcers” value [2, 7] of the same compound?
**A.** The value was 10.0 ± 4.8.

Source: patent publication US10849878B2 (OBSHCHESTVO S OGRANICHENNOY OTVETSTVENNOSTYU “NORMOFARM”, priority 2015, dated 2020)
